# Tests used:
# [1] = target: T1, CB2 receptor (Homo sapiens, UniProt P34972); assay: cell-based; set-up: host or cells: cAMP Hunter cell lines
# Outline: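 PathHunter β-Arrestin enzyme fragment complementation cells, EA-tagged β-Arrestin and PK-tagged receptor, exposed to compound for 90 to 180 minutes at 37° C. or room temperature, 1% vehicle. Chemiluminescence read 1 h after detection reagent; agonist % activity relative to vehicle and MAX control ligand.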
# [2] = target: T1, CB2 receptor; assay: cAMP Assay #1: CB2 adenylylcyclase assay in CHO cells; format: cell-based; set-up: expressed in transfected cells; host or cells: CHO cells
# Experimental: (§1) Compounds of the invention were assayed in an adenylylcyclase assay to determine agonist activity on the CB1 and CB2 receptors, the results of which are provided in Table 4. Exemplary methods for the adenylylcyclase assay can be found in the literature, for example, in Rhee, M-H., et al. Cannabinol Derivatives: Binding to Cannabinoid Receptors and Inhibition of Adenylylcyclase. J Med Chem. 40: 3228-3233 (1997).
# CB2 Activity as determined by Adenylylcyclase Assay: CB2 receptor agonist activity was measured by measuring cAMP production. A compound of the invention was incubated with CHO cells expressing human recombinant CB2 for 10 minutes at 37° C.
# (§2) Determination of EC50 values: The EC50 values (concentration producing a half-maximal response) were determined by non-linear regression analysis of the concentration-response curves generated with mean replicate values using Hill equation curve fitting: Y=D+[(A−D)/(1+(C/C50)^nH)], where Y=response, A=left asymptote of the curve, D=right asymptote of the curve, C=compound concentration, and C50=EC50, and nH=slope factor. This analysis was performed using software developed at Cerep (Hill software) and validated by comparison with data generated by the commercial software SigmaPlot® 4.0 for Windows® (© 1997 by SPSS Inc.).
# [3] = target: T1, CB2 receptor; assay: CB2 competitive radioligand binding assay ([3H] WIN-55,212-2); set-up: expressed in transfected cells; host or cells: CHO-K1 cells
# Outline: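 Single-concentration displacement: 2.4 nM [3H]WIN-55,212-2 competed with 0.05 μM compound (1% DMSO) for 90 min at 37 °C on human CB2 expressed in CHO-K1 cells (HEPES 20 mM, pH 7.0, 0.5% BSA). Result given as % inhibition of bound radioligand.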
# [4] = target: T2, CB1 receptor (Homo sapiens, UniProt P21554); assay: CB1 competitive radioligand binding assay ([3H] SR141716A); set-up: expressed in transfected cells; host or cells: Chem-1 cells
# Outline: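 Chem-1 cells expressing human recombinant CB1 incubated 90 min at 37° C with 2.0 nM [3H]SR141716A and compound at 0.5 μM (1% DMSO) in HEPES pH 7.4 buffer with MgCl2, CaCl2, 0.2% BSA. Read-out is % inhibition of radioligand binding.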
# [5] = target: T2, CB1 receptor; assay: cAMP Assay #1: CB1 adenylylcyclase assay in CHO cells; format: cell-based; set-up: expressed in transfected cells; host or cells: CHO cells
# Experimental: as §1
# CB1 Activity as determined by Adenylylcyclase Assay: CB1 receptor agonist activity was measured by measuring cAMP production. A compound of the invention was incubated with CHO cells expressing human recombinant CB1 for 20 minutes at 37° C.
# as §2
# [6] = target: T2, CB1 receptor; assay: cell-based; set-up: host or cells: PathHunter cell lines
# [7] = target: T1, CB2 receptor; assay: cAMP Assay #2: Hit Hunter cAMP assay, Gi-coupled agonist activity, CB2; format: cell-based; set-up: host or cells: cAMP Hunter cell lines; conditions: for CB2 fold selectivity: Hit Hunter cAMP, CB1 EC50 / CB2 EC50
# Experimental: (§3) Compounds of the invention were assayed in the Hit Hunter® cAMP assay to determine Gi-coupled agonist activity on the CB1 and CB2 receptors, the results of which are provided in Table 5.
# (§4) The Hit Hunter® cAMP assay monitors the activation of a GPCR via Gi and […] secondary messenger signaling in a homogenous, non-imaging assay format using a technology developed by DiscoverX called Enzyme Fragment Complementation (EFC) with β-galactosidase (β-Gal) as the functional reporter. […] ED is fused to cAMP and in the assay competes with cAMP generated by cells for binding to a cAMP-specific antibody. Active β-Gal is formed by complementation of exogenous EA to any unbound ED cAMP. Active enzymes can then convert a chemiluminescent substrate, generating an output signal detectable on a standard microplate reader.
# (§5) cAMP Hunter cell lines were expanded from freezer stocks according to standard procedures. Cells were seeded in a total volume of 20 μL into white walled, 384-well microplates and incubated at 37° C. for the appropriate time prior to testing. cAMP modulation was determined using the DiscoverX Hit Hunter cAMP XS+ assay. For Gi agonist activity determination, cells were incubated with sample in the presence of EC80 forskolin to induce response (20 μM and 25 μM in the CB1 and CB2 assays, respectively). Media was aspirated from cells and replaced with 15 μL 2:1 HBSS/10 mM HEPES:cAMP XS+Ab reagent.
# (§6) Intermediate dilution of sample stocks was performed to generate 4× sample in assay buffer. 5 μL of 4× compound was added to cells and incubated at 37° C. or room temperature for 30 or 60 minutes. Final vehicle concentration was 1%. Assay signal was generated through incubation with 20 μL cAMP XS+ED/CL lysis cocktail for one hour at room temperature. Microplates were read following signal generation with a PerkinElmer Envision™ instrument for chemiluminescent signal detection. Compound activity was analyzed using CBIS data analysis suite (Chem Innovation, CA). For agonist assays, percentage activity was calculated using the following formula: % Activity=100%×(1−(mean RLU of test sample−mean RLU of Max control ligand)/(mean RLU of vehicle control−mean RLU of Max control ligand). Control ligand was the non-selective CB1/CB2 agonist CP55,940.
# [8] = target: T2, CB1 receptor; assay: cAMP Assay #2: Hit Hunter cAMP assay, Gi-coupled agonist activity, CB1; format: cell-based; set-up: host or cells: PathHunter cell lines
# Experimental: as §3, §4, §5, §6
# [9] = test system: LPS-induced PBMCs; assay: Inflammatory cytokine release from LPS-induced PBMCs (Luminex); format: cell-based, human; conditions: fold change from LPS-treated PBMCs, compounds 10 μM (DEX 1 μg/ml) 2 h, then LPS 0.1 μg/ml 24 h, negative = reduced; for IL-12 (p70) / L-31: OOR = out of standard curve range
# Experimental: Compounds of the invention were assayed for their effect on inflammatory cytokine release from lipopolysaccharides (LPS)-induced PBMCs, isolated from a human blood sample, the results of which are provided in Table 7 as fold change. Exemplary methods for quantifying secretion of inflammatory cytokines in PBMCs are known in the art, for example, as described in Hailer et al., Infection and Immunity. 68(2):752-759 (2000); and Merlini et al., Frontiers in Immunology. 7:614 (2016); each of which is incorporated herein by reference with respect to methods for evaluating cytokine release in PBMCs.
# In brief, human blood samples from healthy volunteers were collected and PBMCs were isolated. PBMCs were cultured and each compound was assayed in triplicate at a final concentration of 10 μM for 2 hours. 1 μg/ml dexamethasone (DEX) served as a positive control. LPS was added at a final concentration of 0.1 μg/ml and further incubated for 24 hours. At the end of the incubation, the supernatants were collected and the levels of a panel of secreted cytokines were measured by a Human Magnetic Luminex® assay (R&D). The results in Table 7 are presented as a fold change from LPS-treated PBMCs. Reduced levels are expressed by negative values. OOR denotes values that are out of the standard curve range for the specific cytokine and thus, could not be accurately measured. Cytotoxicity was also determined. Compounds with cytotoxicity ≥50% was considered cytotoxic. Baseline cytotoxicity of untreated PBMCs was 17% and all compounds presented in Table 7 induced cytotoxicity below 25%.
# [10] = PathHunter agonist mode, read-out: CB2 Activity (β-Arrestin)
# [11] = PathHunter agonist mode, read-out: CB1 Activity (β-Arrestin)
# T2 sequence (P21554 whole entry): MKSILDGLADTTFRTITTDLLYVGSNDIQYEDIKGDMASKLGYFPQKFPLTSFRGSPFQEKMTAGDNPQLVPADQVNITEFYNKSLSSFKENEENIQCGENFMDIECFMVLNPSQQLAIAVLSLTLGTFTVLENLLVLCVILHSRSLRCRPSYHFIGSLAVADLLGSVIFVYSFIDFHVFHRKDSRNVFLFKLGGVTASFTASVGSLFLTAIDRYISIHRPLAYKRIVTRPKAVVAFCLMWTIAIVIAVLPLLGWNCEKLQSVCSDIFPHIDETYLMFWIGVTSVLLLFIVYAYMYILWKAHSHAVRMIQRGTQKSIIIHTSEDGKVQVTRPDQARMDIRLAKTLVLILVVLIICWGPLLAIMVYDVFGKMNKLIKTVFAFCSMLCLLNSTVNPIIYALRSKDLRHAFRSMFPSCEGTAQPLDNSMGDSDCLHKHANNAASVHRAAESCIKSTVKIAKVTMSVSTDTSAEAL
# T1 sequence (P34972 whole entry, the tested form may be a part): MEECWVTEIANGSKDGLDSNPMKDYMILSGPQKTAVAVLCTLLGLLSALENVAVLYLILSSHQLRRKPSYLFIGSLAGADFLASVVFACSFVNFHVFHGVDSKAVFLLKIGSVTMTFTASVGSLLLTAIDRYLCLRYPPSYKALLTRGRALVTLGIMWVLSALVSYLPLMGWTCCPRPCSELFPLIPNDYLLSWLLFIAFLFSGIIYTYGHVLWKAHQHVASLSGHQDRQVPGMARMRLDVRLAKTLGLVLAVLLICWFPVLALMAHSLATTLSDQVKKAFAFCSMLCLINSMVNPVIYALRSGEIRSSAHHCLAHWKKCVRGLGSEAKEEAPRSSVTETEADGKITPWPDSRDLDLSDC
smiles,measurement,setting,value
"CCCCCCC(C)(C)c1cc(O)c2c(c1)OC(C)(C)[C@@H]1CC=C(C(=O)OC)C[C@@H]21 [Compound 28, Methyl (6aR,10aR)-1-hydroxy-6,6-dimethyl-3-(2-methyloctan-2-yl)-6a,7,10,10a-tetrahydro-6H-benzo[c]chromene-9-carboxylate]",EC50,[1]; [10],1.7 nM
same,EC50,[2],59 nM
same,Ki,[3],32 nM
same,inhibition at 0.05 µM,"[3]; 0.05 μM compound, 2.4 nM [3H] WIN-55,212-2, 90 min 37° C.",77%
same,Fold Selectivity (CB1/CB2),"[3]; Table 2, ratio of Ki CB1/CB2",22
same,Ki,[4],699 nM
same,inhibition at 0.5 µM,"[4]; 0.5 μM compound, 2.0 nM [3H] SR141716A, 90 min 37° C.",74%
same,EC50,[5],8.2 nM
same,EC50,[6],654 nM
"CCCCCCC(C)(C)c1cc(OC)c2c(c1)OC(C)(C)[C@@H]1CC=C(C(=O)O)C[C@@H]21 [Compound 34, (6aR,10aR)-1-methoxy-6,6-dimethyl-3-(2-methyloctan-2-yl)-6a,7,10,10a-tetrahydro-6H-benzo[c]chromene-9-carboxylic acid]",EC50,[1]; [10],> 3000 nM
same,EC50,[2],> 300 nM
same,Ki,[3],> 3000 nM
same,Ki,[4],> 3000 nM
same,EC50,[5],> 300 nM
same,EC50,[6],> 3000 nM
"CCCCCCC(C)(C)c1cc(O)c2c(c1)OC(C)(C)[C@@H]1CC=C(C(=O)NC3CC(F)(F)C3)C[C@@H]21 [Compound 89, (6aR,10aR)-N-(3,3-difluorocyclobutyl)-1-hydroxy-6,6-dimethyl-3-(2-methyloctan-2-yl)-6a,7,10,10a-tetrahydro-6H-benzo[c]chromene-9-carboxamide]",EC50,[7],1.3 nM
same,CB2 fold selectivity,[7],34.6
same,EC50,[1]; [10],1.9 nM
same,EC50,[8],43.6 nM
same,Ki,[3],4.3 nM
same,Fold Selectivity (CB1/CB2),"[3]; Table 3, ratio of Ki CB1/CB2",14.4
same,IL17A,[9],−14.0 fold change
same,IL-1β,[9],−4.8 fold change
same,IL-4,[9],−3.8 fold change
same,IL-6,[9],−237.0 fold change
same,IL-8,[9],−4.2 fold change
same,IL-10,[9],−960.1 fold change
same,MCP-1,[9],−143.8 fold change
same,TNFα,[9],−35.6 fold change
same,Ki,[4],62 nM
same,EC50,[6],33 nM
"CCCCCCC(C)(C)c1cc(O)c2c(c1)OC(C)(C)[C@@H]1CC=C(C(=O)NC3(C(F)(F)F)CC3)C[C@@H]21 [Compound 99, (6aR,10aR)-1-hydroxy-N-(1-trifluoromethyl-cyclopropyl)-6,6-dimethyl-3-(2-methyloctan-2-yl)-6a,7,10,10a-tetrahydro-6H-benzo[c]chromene-9-carboxamide]",EC50,[7],1.3 nM
same,CB2 fold selectivity,[7],14.9
same,EC50,[1]; [10],1.2 nM
same,EC50,[8],19.1 nM
same,Ki,[3],2 nM
same,Fold Selectivity (CB1/CB2),"[3]; Table 3, ratio of Ki CB1/CB2",4.5
same,IL17A,[9],1.2 fold change
same,IL-1β,[9],1.2 fold change
same,IL-4,[9],−1.4 fold change
same,IL-6,[9],−2.6 fold change
same,IL-8,[9],−1.0 fold change
same,IL-10,[9],−7.0 fold change
same,MCP-1,[9],−3.3 fold change
same,TNFα,[9],−1.4 fold change
same,IL-12 (p70),[9],−1.6 fold change
same,L-31,[9],−1.1 fold change
same,Ki,[4],8.9 nM
same,EC50,[6],32.5 nM
CCCCC(C)(C)c1cc(O)c2c(c1)OC(C)(C)[C@@H]1CC=C(C(=O)O)C[C@@H]21 [Compound 109],EC50,[7],148 nM
same,CB2 fold selectivity,[7],8.3
same,EC50,[1]; [10],58.1 nM
same,EC50,[8],1220 nM
same,Ki,[3],> 3000 nM
same,IL17A,[9],1.2 fold change
same,IL-1β,[9],−3.3 fold change
same,IL-4,[9],−1.5 fold change
same,IL-6,[9],−1.4 fold change
same,IL-8,[9],−1.0 fold change
same,IL-10,[9],−1.3 fold change
same,MCP-1,[9],−5.0 fold change
same,TNFα,[9],−1.3 fold change
same,IL-12 (p70),[9],−1.6 fold change
same,L-31,[9],−1.5 fold change
same,Ki,[4],> 3000 nM
same,EC50,[6]; [11],> 3000 nM
"CCCC(C)(C)c1cc(O)c2c(c1)OC(C)(C)[C@@H]1CC=C(C(=O)O)C[C@@H]21 [Compound 110, (6aR,10aR)-1-hydroxy-6,6-dimethyl-3-(2-methylpentan-2-yl)-6a,7,10,10a-tetrahydro-6H-benzo[c]chromene-9-carboxylic acid]",EC50,[7],211 nM
same,CB2 fold selectivity,[7],>14
same,EC50,[1],37.4 nM
same,EC50,[8],> 3000 nM
same,Ki,[3],> 3000 nM
same,IL17A,[9],1.3 fold change
same,IL-1β,[9],−1.5 fold change
same,IL-4,[9],−1.3 fold change
same,IL-6,[9],−1.2 fold change
same,IL-8,[9],−1.0 fold change
same,IL-10,[9],−1.0 fold change
same,MCP-1,[9],−3.0 fold change
same,TNFα,[9],−1.0 fold change
same,IL-12 (p70),[9],−1.1 fold change
same,L-31,[9],−1.3 fold change
same,Ki,[4],> 3000 nM
same,EC50,[6]; [11],> 3000 nM

# Source: patent US20210284621A1 (priority 2018, published 2021)
